One data set relates to NCFB patients. Conditions: cited from earlier work.
For data set [1], the system named is subjects with NCFB chronically infected with P. aeruginosa. Nature of the data set: PROMIS 1 Phase III clinical study: NCFB pulmonary exacerbations, inhaled CMS via I-neb vs placebo. The class given is in vivo, human. Conditions: for hazard ratio, time to first NCFB pulmonary exacerbation: CMS vs placebo, Cox proportional hazard model; for rate ratio of CMS relative to placebo, NCFB pulmonary exacerbation annual rate: LS Mean. As to the method:
As used herein the term “pulmonary exacerbation” in a patient refers to the presence concurrently of at least 3 of the following 8 symptoms/signs for at least 24 hours: • increased cough; • increased sputum volume and/or consistency; • increased sputum purulence; • new or increased haemoptysis; • increased wheezing; • increased dyspnoea; • increased fatigue/malaise; • episodes of fever (temperature≥38° C.) • and it is clinically determined that the subject requires and is prescribed systemic antibiotic therapy. A new pulmonary exacerbation is only considered to occur if there are at least 14 days between the end of the course of systemic antibiotics and the onset of new qualifying symptoms. (Note: A pulmonary exacerbation is reported as an Adverse Event or serious AE [SAE]).
A “severe” pulmonary exacerbation is herein defined a pulmonary exacerbation requiring intravenous antibiotics and/or hospitalisation.
A supportive analysis has been conducted using an alternative definition of NCFB pulmonary exacerbation. The re-classification of exacerbations has been conducted in a blinded fashion (before database lock). The alternative definition of pulmonary exacerbations used will be deterioration in three or more of the following key symptoms for at least 48 hours: • Cough • Sputum volume and/or consistency • Sputum purulence • Breathlessness and/or exercise tolerance (dyspnoea) • Fatigue and/or malaise • Haemoptysis • And: • a physician determines a change in bronchiectasis treatment is required when other potential causes of clinical deterioration have been discounted.
The number of NCFB pulmonary exacerbations during the treatment period has been analysed using a Poisson regression model allowing for over-dispersion including treatment, pooled sites and use of stable concomitant therapy with oral macrolides as fixed effects and log-time on trial as an offset.
The number and the percentage of subjects with NCFB pulmonary exacerbations, the number of pulmonary exacerbations and the total follow-up time in years have been summarised by treatment group. The adjusted yearly mean exacerbation rates in each treatment group and the adjusted rate ratio with their 95% CIs has been estimated by the model.
For the analysis, 2 pulmonary exacerbations have been considered as a single episode in cases where the second exacerbation starts less than 14 days after the end of the antibiotic therapy (oral or intravenous) for the first pulmonary exacerbation.
The time to the first NCFB pulmonary exacerbation and the time to the first severe NCFB pulmonary exacerbation has been calculated as the time in days from the date of the first dose of IMP to the date at which the first pulmonary exacerbation occurs (i.e. date at which the first pulmonary exacerbation occurs—date of the first dose+1). A […] has been used to compare the treatment groups. Subjects completing the trial without NCFB pulmonary exacerbations or who are discontinued prematurely without exacerbations, will be considered as censored at the time of their last follow-up. […]
The primary variable for this trial is the mean annual NCFB pulmonary exacerbation rate (frequency of pulmonary exacerbations) over 12 months.

Another data set has as its system Pseudomonas aeruginosa. Nature of the data set: PROMIS 1: P. aeruginosa density in sputum. Conditions: for Mean change from baseline in P. aeruginosa density: mITT. It counts as in vivo. An excerpt:
Least square means in each treatment group, least square mean difference between treatments, their 95% CIs and associated p-values have been estimated.
Summary statistics of the P. aeruginosa density (log 10 CFU/g sputum) and change from baseline (Visit 2) will be provided by treatment group for each trial visit.
Results of the quantitative analysis for P. aeruginosa density will be presented as colony forming units (CFU) count per gram sputum.

Data set [2] relates to subjects with NCFB chronically infected with P. aeruginosa. Nature of the data set: PROMIS 1: quality of life by Saint George's Respiratory Questionnaire (SGRQ). It counts as in vivo, human. As to conditions: at the end of the CMS treatment. An excerpt: The SGRQ total score and domain scores (Symptoms, Activity and Impact scores) has been summarised at each visit by treatment group using descriptive statistics. Changes from baseline (Visit 2) have been also summarised for each post-baseline visit by treatment group. Scores have been computed according to the SGRQ manual.
SGRQ total score has been analysed using a linear mixed model for repeated measures including treatment, visit, treatment-by-visit interaction, use of stable concomitant therapy with oral macrolides and pooled sites as fixed effects and baseline value as covariate. An unstructured covariance matrix has been assumed and the Kenward-Roger adjustment has been used for the degrees of freedom. The least square means in each treatment group, the least square mean differences between treatments, their 95% CIs and associated p-values at each visit will be estimated by the model.
It is described e.g. in U.S. Pat. No. 6,367,470.

The test system of data set [3] is bronchiectasis patients with P. aeruginosa. As to conditions: cited from earlier work; for time to first exacerbation compared to placebo: 1 MU twice daily through the I-neb, up to 6 months (PPCTP/001, Haworth 2014).
Setting [4] is: sensitivity analysis, alternative definition of exacerbation.

“Also recorded” adds a separate entry of the source.

On to `O=C(O)c1cn(C2CC2)c2cc(N3CCNCC3)c(F)cc2c1=O` [ciprofloxacin], for which the “trial outcome, primary endpoints” value in the data set with NCFB patients (ORBIT-3 and RESPIRE-2 trials) is recorded as “failed to achieve their primary endpoints”. In addition, the “trial outcome, time of first exacerbation and rate of exacerbations vs placebo” value in the data set with NCFB patients (ORBIT-4 and RESPIRE-1 trials) was “showed clinical benefit”.

In the case of colistimethate sodium [CMS], the “subjects with severe NCFB pulmonary exacerbations” value in data set [1] (19/176 subjects) is on record as 10.8%. Besides, the “LS mean NCFB pulmonary exacerbation annual rate” value in data set [1] (PP Population) was 0.491; in data set [1] (sensitivity analysis, alternative (ERS 2017) definition of exacerbation, mITT), 0.538. Moreover, the “LS mean rate ratio of CMS relative to placebo” value was found to be 0.583 in data set [1] (PP Population) and 0.642 in data set [1] (setting [4]). The “reduction in pulmonary exacerbation rate vs placebo” value stood at 42% in data set [1] (PP Population) and 36% in data set [1] (setting [4]). In addition, in data set [1] (adherent subjects (adherence>80%)), the “mean annual exacerbation rate (LS Mean)” value is given as 0.494. In addition, the “median time to first severe NCFB pulmonary exacerbation, 25th and 75th percentile” value in data set [1] (human, in vivo) is recorded as “not reached”. For the same compound, in data set [1] (human, in vivo), the “reduction in the rate of severe pulmonary exacerbations compared to placebo” value is listed as 59%. The “reduction in the risk of the first exacerbation event compared to placebo” value in data set [1] (mITT) stood at 41%. Besides, the “annual rate of exacerbations” value in data set [1] (mITT, CMS 1 MIU by I-neb twice a day, 12 months) worked out at 0.58 per patient per year. Also, the “hazard ratio, time to first NCFB pulmonary exacerbation” value is 0.590 in data set [1] (mITT) and 0.59 in data set [1] (mITT, listed as CMS I-neb). Moreover, in data set [1] (mITT, from first dose of IMP), the “median time to first NCFB pulmonary exacerbation” value is given as “not reached”. Also, the “subjects who experienced a pulmonary exacerbation during the study” value in data set [1] (mITT, n=68) is 38.6%. In addition, in data set [1] (mITT, primary analysis), the “reduction in the annual rate of pulmonary exacerbations relative to placebo” value came to 39%. The “rate ratio of CMS relative to placebo, NCFB pulmonary exacerbation annual rate” value turned out to be 0.612 in data set [1] (mITT, primary analysis) and 0.61 in data set [1] (mITT, primary analysis, listed as CMS I-neb). In addition, the “LS Mean rate ratio, pulmonary exacerbations” value in data set [1] (post-hoc analyses with low-recruiting countries combined) is recorded as 0.591. In addition, the “LS Mean severe NCFB pulmonary exacerbation annual rate” value in data set [1] (severe = requiring intravenous antibiotics and/or hospitalisation) worked out at 0.116. Moreover, the “LS Mean rate ratio of CMS relative to placebo, severe exacerbations” value in data set [1] (severe NCFB pulmonary exacerbations) was found to be 0.409. For the same compound, the “LS mean difference in P. aeruginosa density, CMS vs placebo” value with Pseudomonas aeruginosa (after 1 month) is listed as −1.620. Also, the “Mean change from baseline in P. aeruginosa density” value with Pseudomonas aeruginosa (Visit 3 (28 days)) is listed as −1.59 log10(CFU/mL); in the data set on Pseudomonas aeruginosa (Visit 5 (6 months)), −1.39 log10(CFU/mL); with Pseudomonas aeruginosa (Visit 6 (9 months)), −1.56 log10(CFU/mL); in the data set on Pseudomonas aeruginosa (Visit 7 (12 months/EOT)), −0.86 log10(CFU/mL). The “course of P. aeruginosa density under treatment” value in the data set with Pseudomonas aeruginosa (over the study) is “fell rapidly and remained suppressed; also recorded: falls rapidly and remains suppressed”. For the same compound, the “treatment difference in SGRQ total score by LS means” value in data set [2] was found to be 4.552. In data set [3], the “time to first exacerbation compared to placebo” value is on record as “not statistically different from the placebo group”. Also, the “frequency of adverse respiratory effects (cough, dyspnoea, bronchospasm, sore throat)” value in data set [3] (human, in vivo) was “at least 1 in 10 people”. Also, the “admissions to emergency and days of hospitalization” value in data set [3] (observational study, 44 patients, 6 or 12 months, vs period preceding treatment (Lopez Gil Otero 2019)) was “reduced admissions to emergency and days of hospitalization”.

With colistin, the “time to first exacerbation compared to placebo” value in data set [3] was “not to be associated with a statistically significant improvement”.

Values taken from patent publication US20240342239A1, “TREATMENT OF NON-CYSTIC FIBROSIS BRONCHIECTASIS” (Zambon S.P.A., priority 2021, published 2024).
